Assay results from ChEMBL document CHEMBL3714742, “Pyrimido (4,5-b) indole derivatives” (2003).
Active and inactive are the calls of the source. No rule for the calls is given here.

Tests used:
[1] = target: T1, Dual specificity mitogen-activated protein kinase kinase 7 (Homo sapiens, UniProt O14733); assay: Inhibition of GST-tagged human MKK7 expressed in Escherichia coli (BL21(DE3) pLysS) co-expressing human MEKK catalytic domain using biotinylated and GST-tagged rat GST-KN-SAPKalpha substrate incubated for 1 hr by time-resolved fluorescence based assay
T1 sequence (O14733 whole entry): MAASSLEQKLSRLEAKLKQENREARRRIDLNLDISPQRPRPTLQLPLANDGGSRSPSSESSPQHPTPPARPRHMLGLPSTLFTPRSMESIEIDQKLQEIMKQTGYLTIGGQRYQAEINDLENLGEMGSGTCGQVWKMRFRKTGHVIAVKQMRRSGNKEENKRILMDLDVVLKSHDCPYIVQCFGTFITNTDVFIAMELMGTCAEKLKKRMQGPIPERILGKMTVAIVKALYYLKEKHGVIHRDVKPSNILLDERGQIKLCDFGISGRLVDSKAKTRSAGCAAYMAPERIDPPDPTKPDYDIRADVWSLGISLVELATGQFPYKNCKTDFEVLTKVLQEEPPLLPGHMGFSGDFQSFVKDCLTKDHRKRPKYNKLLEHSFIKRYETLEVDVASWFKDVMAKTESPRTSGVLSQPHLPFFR

Mus musculus [2] = assay: Inhibition of anti-CD3 antibody-induced IL2 production in Balb/c mouse dosed intravenously 5 mins before anti-CD3 antibody injection and measured 2 hrs post-challenge by ELISA; assay type: functional, organism-based
Mus musculus [3] = assay: Inhibition of anti-CD3 antibody-induced IL4 production in Balb/c mouse dosed intravenously 5 mins before anti-CD3 antibody injection and measured 2 hrs post-challenge by ELISA; assay type: functional, organism-based
Mus musculus [4] = assay: Inhibition of anti-CD3 antibody-induced IFNgamma production in Balb/c mouse dosed intravenously 5 mins before anti-CD3 antibody injection and measured 2 hrs post-challenge by ELISA; assay type: functional, organism-based

Row | Structure (SMILES) | IC50 [1] | inhibition (Mus musculus [2]) | inhibition (Mus musculus [3]) | inhibition (Mus musculus [4])
1 | COCCNc1ncnc2[nH]c3ccc(O)cc3c12 | < 1000 nM | Active | Active | Active
2 | CC(C)(C)OC(=O)NC1CCN(c2ncnc3[nH]c4ccc(O)cc4c23)CC1 | < 1000 nM | Active | Active | Active
3 | Nc1nc(NCCN2CCCC2)c2c(n1)[nH]c1ccc(O)cc12 | > 10000 nM | Active | Active | Active
4 | Cc1nc(N2CCCC(C)C2)c2c(n1)[nH]c1ccc(O)cc12 (stereo unspecified) | 1000 nM | Active | Active | Active
5 | Nc1nc(N2CCC(N3CCCC3)CC2)c2c(n1)[nH]c1ccc(O)cc12 | < 1000 nM | Active | Active | Active
6 | O=C1CCN(c2ncnc3[nH]c4ccc(O)cc4c23)CC1 | < 1000 nM | Active | Active | Active
7 | Cc1nc(N2CCC(CO)CC2)c2c(n1)[nH]c1ccc(O)cc12 | 1000 nM | Active | Active | Active
8 | Nc1nc(N2CCCC2)c2c(n1)[nH]c1ccc(O)cc12 | < 1000 nM | Active | Active | Active
9 | Nc1nc(N2CCC(C(=O)O)CC2)c2c(n1)[nH]c1ccc(O)cc12 | 1000 nM | Active | Active | Active
10 | Nc1nc(NCCO)c2c(n1)[nH]c1ccc(O)cc12 | < 1000 nM | Active | Active | Active
11 | CC1CCCN(c2ncnc3[nH]c4ccc(O)cc4c23)C1 (stereo unspecified) | < 1000 nM | Active | Active | Active
12 | OCCNc1ncnc2[nH]c3ccc(O)cc3c12 | < 1000 nM | Active | Active | Active
13 | CC(=O)NC1CCN(c2ncnc3[nH]c4ccc(C(N)=O)cc4c23)CC1 | < 1000 nM | Active | Active | Active
14 | OCCC1CCN(c2ncnc3[nH]c4ccc(O)cc4c23)CC1 | < 1000 nM | Active | Active | Active
15 | Nc1nc(NC2CCCCCC2)c2c(n1)[nH]c1ccc(O)cc12 | < 1000 nM | Active | Active | Active
16 | NC(=O)c1ccc2[nH]c3ncnc(NCCO)c3c2c1 | < 1000 nM | Active | Active | Active
17 | CC(C)(C)OC(=O)NC1CCCN(c2ncnc3[nH]c4ccc(C(N)=O)cc4c23)C1 (stereo unspecified) | < 1000 nM | Active | Active | Active
18 | NCCNc1ncnc2[nH]c3ccc(C(N)=O)cc3c12 | < 1000 nM | Active | Active | Active
19 | CC1CCN(c2ncnc3[nH]c4ccc(O)cc4c23)CC1 | < 1000 nM | Active | Active | Active
20 | Nc1nc(N2CCC(Cc3ccccc3)CC2)c2c(n1)[nH]c1ccc(O)cc12 | 1000 nM | Active | Active | Active

Row | Structure (SMILES) | IC50 [1] | inhibition (Mus musculus [2]) | inhibition (Mus musculus [3]) | inhibition (Mus musculus [4])
21 | CC1CCN(c2nc(N)nc3[nH]c4ccc(O)cc4c23)CC1 | < 1000 nM | Active | Active | Active
22 | CC(C)N(C)c1nc(N)nc2[nH]c3ccc(O)cc3c12 | < 1000 nM | Active | Active | Active
23 | O=CN1CCN(c2ncnc3[nH]c4ccc(O)cc4c23)CC1 | < 1000 nM | Active | Active | Active
24 | NC1CCCN(c2ncnc3[nH]c4ccc(O)cc4c23)C1 (stereo unspecified) | < 1000 nM | Active | Active | Active
25 | OCCN(CCO)c1ncnc2[nH]c3ccc(O)cc3c12 | < 1000 nM | Active | Active | Active
26 | Cc1nc(N2CCCCC2)c2c(n1)[nH]c1ccc(O)cc12 | < 1000 nM | Active | Active | Active
27 | COC(=O)c1ccc2[nH]c3nc(N)nc(N4CCCCC4)c3c2c1 | < 1000 nM | Active | Active | Active
28 | Cc1nc(N2CCCCC2CO)c2c(n1)[nH]c1ccc(O)cc12 (stereo unspecified) | 1000 nM | Active | Active | Active
29 | CCC1CCCCN1c1ncnc2[nH]c3ccc(C(N)=O)cc3c12 (stereo unspecified) | < 1000 nM | Active | Active | Active
30 | OC[C@@H]1CCCN1c1ncnc2[nH]c3ccc(O)cc3c12 | < 1000 nM | Active | Active | Active
31 | NCc1ccc2[nH]c3nc(N)nc(N4CCCCC4)c3c2c1 | 1000 nM | Active | Active | Active
32 | Nc1nc(N2CCC3(CC2)OCCO3)c2c(n1)[nH]c1ccc(O)cc12 | < 1000 nM | Active | Active | Active
33 | Cc1nc(N2CCCC(O)C2)c2c(n1)[nH]c1ccc(O)cc12 (stereo unspecified) | < 1000 nM | Active | Active | Active
34 | Nc1nc(N2CCC3CCCCC3C2)c2c(n1)[nH]c1ccc(O)cc12 (stereo unspecified) | < 1000 nM | Active | Active | Active
35 | Cc1nc(N2CCCC(CO)C2)c2c(n1)[nH]c1ccc(O)cc12 (stereo unspecified) | < 1000 nM | Active | Active | Active
36 | CC1CCCN(c2ncnc3[nH]c4ccc(C(N)=O)cc4c23)C1 (stereo unspecified) | < 1000 nM | Active | Active | Active
37 | OCCCNc1ncnc2[nH]c3ccc(O)cc3c12 | < 1000 nM | Active | Active | Active
38 | NC(=O)c1ccc2[nH]c3ncnc(NC4CCCCCC4)c3c2c1 | < 1000 nM | Active | Active | Active
39 | Oc1ccc2[nH]c3ncnc(NC4CCCCC4)c3c2c1 | < 1000 nM | Active | Active | Active
